Reference: patent US9394282B2, “Pyrazole carboxamides as Janus kinase inhibitors” (Merck Sharp & Dohme Corp., priority 2011, dated 2016)

Legend:
JAK1 = JAK1 (Homo sapiens (Human), UniProt P23458); test: Jak biochemical HTRF assay, JAK1; settings: recombinant purified GST-tagged catalytic domain; HTRF format; [ATP] 31.8 μM
From the text: (§1) Jak Biochemical HTRF Assay Protocol
(§2) Subsequent reagent additions employed an Agilent Bravo.

JAK2 = JAK2 (Homo sapiens (Human), UniProt O60674); test: Jak biochemical HTRF assay, JAK2; settings: recombinant purified GST-tagged catalytic domain, HTRF format
From the text: as §1, §2

Chain of JAK1 (P23458 875-1153): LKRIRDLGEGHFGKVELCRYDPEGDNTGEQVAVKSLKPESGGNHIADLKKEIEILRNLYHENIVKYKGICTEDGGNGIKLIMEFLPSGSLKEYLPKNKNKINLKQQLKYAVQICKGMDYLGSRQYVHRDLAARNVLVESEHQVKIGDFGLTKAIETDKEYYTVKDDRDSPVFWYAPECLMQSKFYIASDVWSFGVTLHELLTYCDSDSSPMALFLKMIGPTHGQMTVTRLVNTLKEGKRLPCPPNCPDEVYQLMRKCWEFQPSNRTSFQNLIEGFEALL
Chain of JAK2 (O60674 849-1124): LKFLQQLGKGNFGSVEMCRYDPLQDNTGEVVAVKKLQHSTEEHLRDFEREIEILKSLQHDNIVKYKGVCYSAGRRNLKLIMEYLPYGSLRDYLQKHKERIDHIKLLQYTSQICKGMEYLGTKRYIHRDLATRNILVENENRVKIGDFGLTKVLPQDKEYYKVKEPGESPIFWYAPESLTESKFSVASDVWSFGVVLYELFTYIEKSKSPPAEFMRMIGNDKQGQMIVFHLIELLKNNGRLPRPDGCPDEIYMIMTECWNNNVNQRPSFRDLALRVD

IC50 (JAK1) | IC50 (JAK2; [ATP] 8.5 μM) | IC50 (JAK2; [ATP] […]) | Compound
0.7 nM | 15 nM | – | N#CCC1(COC(=O)N2CC[C@@H](C#N)C(n3cc(C(N)=O)c(Nc4ccc(F)cc4)n3)C2)CC1 (mixture of isomers) [Example 5-88, [1-(cyanomethyl)cyclopropyl]methyl (3S,4R and 3R,4S)-3-{4-carbamoyl-3-[(4-fluorophenyl)amino]-1H-pyrazol-1-yl}-4-cyanopiperidine-1-carboxylate]
0.7 nM | 14 nM | – | N#C[C@@H]1CCN(Cc2ccc(F)cn2)C[C@H]1n1cc(C(N)=O)c(Nc2ccc(F)cc2)n1 (racemic) [Example 6-16, 1-{(3S,4R and 3R,4S)-4-cyano-1-[(5-fluoropyridin-2-yl)methyl]piperidin-3-yl}-3-[(4-fluorophenyl)amino]-1H-pyrazole-4-carboxamide]
2 nM | 26 nM | – | N#C[C@@H]1CCN(Cc2cnccn2)C[C@H]1n1cc(C(N)=O)c(Nc2ccc(F)cc2)n1 (racemic) [Example 6-2, 1-[(3S,4R and 3R,4S)-4-cyano-1-(pyrazin-2-ylmethyl)piperidin-3-yl]-3-[(4-fluorophenyl)amino]-1H-pyrazole-4-carboxamide]
3 nM | 34 nM | – | N#C[C@@H]1CN(Cc2ccon2)CC[C@H]1n1cc(C(N)=O)c(Nc2ccc(F)cc2)n1 (racemic) [Example 6-24, 1-[(3R,4R and 3S,4S)-3-cyano-1-(isoxazol-3-ylmethyl)piperidin-4-yl]-3-[(4-fluorophenyl)amino]-1H-pyrazole-4-carboxamide]
10 nM | 111 nM | – | Cc1c(CN2CC[C@@H](n3cc(C(N)=O)c(Nc4ccc(F)cc4)n3)[C@H](C#N)C2)cnn1C (racemic) [Example 6-34, 1-{(3R,4R and 3S,4S)-3-cyano-1-[(1,5-dimethyl-1H-pyrazol-4-yl)methyl]piperidin-4-yl}-3-[(4-fluorophenyl)amino]-1H-pyrazole-4-carboxamide]
7 nM | 82 nM | – | CCn1ccnc1CN1CC[C@@H](n2cc(C(N)=O)c(Nc3ccc(F)cc3)n2)[C@H](C#N)C1 (racemic) [Example 6-38, 1-{(3R,4R and 3S,4S)-3-cyano-1-[(1-ethyl-1H-imidazol-2-yl)methyl]piperidin-4-yl}-3-[(4-fluorophenyl)amino]-1H-pyrdzole-4-carboxamide]
13 nM | 125 nM | – | N#C[C@H]1CCNCC1n1cc(C(N)=O)c(Nc2ccc(F)cc2)n1 (mixture of isomers) [Example 3-1, 1-[(3R,4S and 3S,4R)-4-cyanopiperidin-3-yl]-3-[(4-fluorophenyl)amino]-1H-pyrazole-4-carboxamide]
7 nM | 81 nM | – | N#C[C@@H]1CNCC[C@H]1n1cc(C(N)=O)c(Nc2ccc(F)cc2)n1 (racemic) [Example 3-2, 1-[(3R,4R and 3S,4S)-3-cyanopiperidin-4-yl]-3-[(4-fluorophenyl)amino]-1H-pyrazole-4-carboxamide]
13 nM | 703 nM | – | N#C[C@@H]1CN(C(=O)OCC2(N)CC2)CC[C@H]1n1cc(C(N)=O)c(Nc2ccc(F)cc2)n1 (racemic) [Example 5-8, (1-aminocyclopropyl)methyl (3R,4R and 3S,4S)-4-{4-carbamoyl-3-[(4-fluorophenyl)amino]-lH-pyrazol-1-yl}-3-cyanopiperidine-1-carboxylate]
3 nM | 43 nM | – | N#C[C@@H]1CCN(C(=O)OC2COC2)CC1n1cc(C(N)=O)c(Nc2ccc(F)cc2)n1 (mixture of isomers) [Example 5-89, oxetan-3-yl (3S,4R and 3R,4S)-3-{4-carbamoyl-3-[(4-fluorophenyl)amino]-1H-pyrazol-1-yl}-4-cyanopiperidine-1-carboxylate]
0.07 nM | – | 0.7 nM | N#Cc1ccc(Nc2nn([C@H]3COCC[C@@H]3C#N)cc2C(N)=O)cc1 (single isomer, unassigned) [Example 9-35, 3-[(4-cyanophenyl)amino]-1-[(3R, 4S or 3S,4R)-4-cyanotetrahydro-2H-pyran-3-yl]-1H-pyrazole-4-carboxamide]
295 nM | 1110 nM | – | N#C[C@@H]1CN(C(=O)OC2COC2)CC[C@@H]1n1cc(C(N)=O)c(Nc2ccc(F)cc2)n1 (racemic) [Example 5-57, oxetan-3-yl (3R,4S and 3S,4R)-4-{4-carbamoyl-3-[(4-fluorophenyl)amino]-1H-pyrazol-1-yl}-3-cyanopiperidine-1-carboxylate]
1 nM | 20 nM | – | Cc1c(CN2CC[C@@H](C#N)[C@H](n3cc(C(N)=O)c(Nc4ccc(F)cc4)n3)C2)cnn1C (racemic) [Example 6-15, 1-{(3S,4R and 3R,4S)-4-cyano-1-[(1,5-dimethyl-1H-pyrazol-4-yl)methyl]piperidin-3-yl}-3-[(4-fluorophenyl)amino]-1H-pyrazole-4-carboxamide]
4 nM | 42 nM | – | Cc1cc(CN2CC[C@@H](C#N)[C@H](n3cc(C(N)=O)c(Nc4ccc(F)cc4)n3)C2)no1 (racemic) [Example 6-14, 1-{(3S,4R and 3R,4S)-4-cyano-1-[(5-methylisoxazol-3-yl)methyl]piperidin-3-yl}-3-[(4-fluorophenyl)amino]-1H-pyrazole-4-carboxamide]
108 nM | – | 1270 nM | CC(C)(C)OC(=O)N1CC[C@H](n2cc(C(N)=O)c(Nc3ccccc3)n2)[C@H](C#N)C1 (mixture of isomers) [Example 1-1, tert-butyl(3R,4S and 3S,4R)-4-[4-(aminocarbonyl)-3-anilino-1H-pyrazol-1-yl]-3-cyanopiperidine-1-carboxylate]
0.1 nM | 0.6 nM | – | CC1(c2ccc(Nc3nn([C@H]4COCC[C@@H]4C#N)cc3C(N)=O)cc2)COC1 (single isomer, unassigned) [Example 9-24, 1-[(3R,4S or 3S,4R)-4-cyanotetrahydro-2H-pyran-3-yl]-3-{[4-(3-methyloxetan-3-yl)phenyl]amino}-1H-pyrazole-4-carboxamide]
0.6 nM | 3 nM | – | N#C[C@H]1CCOC[C@@H]1n1cc(C(N)=O)c(Nc2ccc(OCC(F)(F)F)nc2)n1 (single isomer, unassigned) [Example 9-36, 1-[(3R,4S or 3S,4R)-4-cyanotetrahydro-2H-pyran-3-yl]-3-{[6-(2,2,2-trifluoroethoxy)pyridin-3-yl]amino}-1H-pyrazole-4-carboxamide]
4 nM | 44 nM | – | N#C[C@@H]1CCN(C(=O)OC(CF)CF)CC1n1cc(C(N)=O)c(Nc2ccc(F)cc2)n1 (mixture of isomers) [Example 5-71, 2-fluoro-1-(fluoromethyl)ethyl (3S,4R and 3R,4S)-3-{4-carbamoyl-3-[(4-fluorophenyl)amino]-1H-pyrazol-1-yl}-4-cyanopiperidine-1-carboxylate]
22 nM | 1100 nM | – | N#C[C@@H]1CN(C(=O)OCCN2CCCC2)CC[C@H]1n1cc(C(N)=O)c(Nc2ccc(F)cc2)n1 (racemic) [Example 5-19, 2-pyrrolidin-1-ylethyl (3R,4R and 3S,4S)-4-{4-carbamoyl-3-[(4-fluorophenyl)amino]-1H-pyrazol-1-yl}-3-cyanopiperidine-1-carboxylate]
4 nM | 104 nM | – | N#C[C@@H]1CN(C(=O)OCCF)CC[C@H]1n1cc(C(N)=O)c(Nc2ccc(F)cc2)n1 (racemic) [Example 5-2, 2-fluoroethyl (3R,4R and 3S,4S)-4-{4-carbamoyl-3-[(4-fluorophenyl)amino]-1H-pyrazol-1-yl}-3-cyanopiperidine-1-carboxylate]
6 nM | 98 nM | – | CC1=NOC(CN2CC[C@@H](C#N)[C@H](n3cc(C(N)=O)c(Nc4ccc(F)cc4)n3)C2)C1 (mixture of isomers) [Example 6-20, 1-{(3S,4R and 3R,4S)-4-cyano-1-[(3-methyl-4,5-dihydroisoxazol-5-yI)methyl]piperidin-3-yl}-3-[(4-fluorophenyl)amino]-1H-pyrazole-4-carboxamide]
102 nM | 628 nM | – | N#C[C@@H]1CNCCC1n1cc(C(N)=O)c(Nc2ccc(F)cc2)n1 (mixture of isomers) [Example 3-3, 1-[(3R,4R and 3S,4S)-3-cyanopiperidin-4-yl]-3-[(4-fluorophenyl)amino]-1H-pyrazole-4-carboxamide]
6 nM | 39 nM | – | CC(C)(C)OC(=O)N1CC[C@H](C#N)C(n2cc(C(N)=O)c(Nc3ccc(F)cc3)n2)C1 (mixture of isomers) [Example 2-1, tert-Butyl(3R,4S and 3S,4R)-3-{4-carbamoyl-3-[(4-fluorophenyl)amino]-1H-pyrazol-1-yl}-4-cyanopiperidine-1-carboxylate]
6 nM | 74 nM | – | N#C[C@@H]1CCN(CCC2CCOCC2)C[C@H]1n1cc(C(N)=O)c(Nc2ccc(F)cc2)n1 (racemic) [Example 6-10, 1-{(3S,4R and 3R,4S)-4-cyano-1-[2-(tetrahydro-2H-pyran-4-yl)ethyl]piperidin-3-yl}-3-[(4-fluorophenyl)amino]-1H-pyrazole-4-carboxamide]
5 nM | 104 nM | – | Cc1ncc(CN2CC[C@@H](n3cc(C(N)=O)c(Nc4ccc(F)cc4)n3)[C@H](C#N)C2)s1 (racemic) [Example 6-37, 1-{(3R,4R and 3S,4S)-3-cyano-1-[(2-methyl-1,3-thiazol-5-yl)methyl]piperidin-4-yl}-3-[(4-fluorophenyl)amino]-1H-pyrazole-4-carboxamide]
88 nM | > 1500 nM | – | CN(C)CC(C)(C)COC(=O)N1CC[C@@H](n2cc(C(N)=O)c(Nc3ccc(F)cc3)n2)[C@H](C#N)C1 (racemic) [Example 5-21, 3-(dimethylamino)-2,2-dimethylpropyl (3R,4R and 3S,4S)-4-{4-carbamoyl-3-[(4-fluorophenyl)amino]-1H-pyrazol-1-yl}-3-cyanopiperidine-1-carboxylate]
6 nM | 77 nM | – | CC(OC(=O)N1CC[C@@H](C#N)C(n2cc(C(N)=O)c(Nc3ccc(F)cc3)n2)C1)C1CC1 (mixture of isomers) [Example 5-73, 1-cyclopropylethyl (3S,4R and 3R,4S)-3-{4-carbamoyl-3-[(4-fluorophenyl)amino]-1H-pyrazol-1-yl}-4-cyanopiperidine-1-carboxylate]
